# How the values were obtained:
# [1] = system: human embryonic stem cells (hESCs); experiment: Induction of differentiation of hESCs to cardiomyocytes; assay type: cell-based
# Method: In order to test the effect of HBI-3808 on human embryonic stem cells (hESCs) on stimulating differentiation to cardiomyocytes (CMs), hESCs were incubated in the presence of media (see legend, FIG. 31) or 100 ng/ml HBI-3808.
# VEGF = VEGF enrichment and angiogenesis induction by HBI-3808 conditioned media/supernatant; assay type: cell-based
# [2] = system: Adult rats (Sprague Dawley) with MI by LAD ligation; experiment: Rat myocardial infarction model: cardiac function by echocardiography; assay type: in vivo
# Text: Animal Model and Myocardial Infarction: Adult rats (Sprague Dawley (SD), body weight, -250 g) were used to generate a model with MI by LAD ligation of the heart as described in the previous study (Chongyu Zhang, Meng-Hsuan Hsieh, Song-Yi Wu, Shu-Hong Li, Jun Wu, Shi-Ming Liu, Hao-Ji Wei, Richard D. Weisel, Hsing-Wen Sung, Ren-Ke Li, “A self-doping conductive polymer hydrogel that can restore electrical impulse propagation at myocardial infarct to prevent cardiac arrhythmia and preserve ventricular function,” Biomaterials, Volume 231, 2020, 119672, ISSN 0142-9612). In brief, each rat was pre-medicated with 5% isoflurane in a chamber.
# The heart was then exposed through a left anterolateral thoracotomy incision. […] Sham animals was treated identically except that the suture was passed through the myocardium beneath the LAD without ligation. The incision was then closed in layers using 3-0 Vicryl suture and 3-0 silk for the skin. Post-surgery treatment followed per UHN ARC requirement with antibiotics (Duplocillin LA, 15,000 IU/kg, I.M.) and analgesics (Buprenorphrine, 0.03 mg/Kg, SC), and the animals recovered from anesthesia in a warmed environment, under continuous monitoring and care for 1-2 hours.
# The selected rats having similar FS were randomly divided into 6 groups: (1) Negative control group (treated with 40% SBCD); (2) Positive control group (with HBI-3802, 2 mg/kg /day); (3) Dose 1 (HBI-3808 2 mg/kg/day); (4) Dose 2 (HBI-3808 0.64 mg/kg day); (5) Dose 3 (HBI-3808 0.2 mg/kg/day); and (6) Sham control (No myocardial infarction and treated with 40% SBCD).
# Treatments: The rats were treated by gastric gavage daily starting 6 days after MI for 2 weeks (Turner PV, Vaughn E, Sunohara-Neilson J, Ovari J, Leri F, “Oral gavage in rats: animal welfare evaluation,” J. Am. Assoc. Lab. Anim. Sci., 2012 Jan; 51(1): pp. 25-30. PMID: 22330864; PMCID: PMC3276962) as described in Table 18. The same volume of vehicle (1 mL/rat/day) was given to the rats in sham control group. Ten rats were studied in each group (N=10/group). The schematic plan is depicted in FIG. 35.
# Oral Treatment: Six days after permanent LAD ligation, the selected rats received the first daily treatment. HBI-3808 (at 1 of the 3 doses) or 3802 at 2 mg/kg/day (1 ml/rat/day) delivered by gastric gavage daily for 14 days (2). 40% SB-CD alone (1 ml/rat/day) was similarly administered to rats in the control and sham groups.
# Measurement of Cardiac Function: Cardiac function was evaluated by echocardiography prior to LAD ligation, prior to treatment (6 days post myocardial infarction), and at 7- and 21-days post first treatment (13 and 27 days post myocardial infarction). The end-point cardiac function was also evaluated using a pressure-volume catheter on Day 21 after first treatment (27 days post myocardial infarction).
# Echocardiography: Each rat was pre-medicated with isoflurane in a chamber, and anesthesia was maintained during measurement with 2.5% isoflurane delivered using a nose cone. Echocardiographic examinations were performed using a GE Vivid-7 System with a 10S transducer. Depth was set at 2 cm. Short-axis views were obtained using the parasternal approach.
# Left ventricular (LV) dimensions [end-diastolic dimension (LVEDD) and end-systolic dimension (LVESD)] from M mode at short axis views of the mid-level LV. Fractional shortening (% FS) was calculated using the equation: [(LVEDD−LVESD)/LVEDD]×100. Ejection fraction (% EF) was calculated using the equation: [(LVEDD^3−LVESD^3)/LVEDD^3]×100.
# [3] = Varying temperature (VT)-XRPD; assay type: physicochemical; conditions: heating 25 to 250° C. (ethanolamine salt to 300° C.)
# Method: Varying temperature (VT)-XRPD was carried out between 25-250° C.
# VT-XRPD of HBI-3808 sodium salt of Pattern 5 was carried out between 25-250° C. (FIG. 5M). […] At 150° C., the diffractogram changed and was labelled as Pattern 7, indicating formation of HBI-3808 sodium salt of Pattern 7 (see Example 7). Diffractogram of Pattern 7, was observed between 150-250° C. Upon cooling to 25° C., Diffractogram of Pattern 5 was observed again, indicating reformation of HBI-3808 sodium salt of Pattern 5. Pattern 7 has some similarities with Pattern 6 (See Example 6). Both Patterns 6 and 7 may represent anhydrous forms of the HBI-3808 sodium salt. Starting concentration of the of HBI-3808 sodium salt of Pattern 5.
# VT-XRPD was carried out according to the temperature program of Table 17B. […] At 210° C., the XRPD diffractogram was consistent with poorly crystalline BBI-3808 free acid of Pattern 1. Free acid (HBI-3808) of Pattern 1 was observed between 210-240° C.
# [4] = Solubility in water (temperature dependence); assay type: physicochemical
# Method: Sodium salt of Pattern 5 was prepared using inverse solubility, with dissolution of HBI-3808 free acid in water at low temperature, and heating to reach super saturation, followed by anti-solvent addition. The solids isolated from this process were consistent with sodium salt of pattern 15, which can be converted to sodium salt of pattern 5 via drying under vacuum with exposure to elevated humidity (and the conversion proceeds via sodium salt of pattern 2 as an intermediate).
# [5] = 0.64 mg/kg/day, compared to 0.2 mg/kg HBI-3808, p<0.02
# [6] = 2 mg/kg/day, 21 days after treatment, p<0.01
compound,measurement,setting,value
"C[C@@H]1CC[C@]2(C(=O)O)CC[C@]3(C)C(=CCC4[C@@]5(C)C[C@@H](O)[C@H](O)[C@@](C)(CO)C5CC[C@]43C)C2[C@]1(C)O (stereo partly drawn) [HBI-3808, 23-hydroxytormentic acid]",differentiation of hESCs to cardiomyocytes (CMs),"[1]; 100 ng/ml HBI-3808, day 13","successfully stimulated hESCs to differentiate into viable, beating CMs by day 13"
same,modulation of cardiac-associated genes,"[1]; 100 ng/ml, days 1, 3, 6, 9, 13",produced detectable modulation of cardiac-associated genes
same,VEGF in media harvested from treated CMs,VEGF,enriched in VEGF
same,angiogenesis in supernatant of CM cell suspensions,VEGF,induces angiogenesis
same,difference of cardiac function (EF) Days 27 vs 6 post infarction,[2]; 0.16 mg of HBI-3808,showed improvement in cardiac function compared with Day 6
same,difference of cardiac function (EF) Days 27 vs 6 post infarction,[2]; 0.2 mg/kg/day,prevented further deterioration of cardiac dysfunction
same,Left ventricular end systolic dimension (LVESD),"[2]; 0.2 mg/kg/day, vs control at 21 days after treatment, p<0.01",smaller LVESD compared with control group
same,Ejection fraction (EF) / cardiac function,"[2]; 0.2 mg/kg/day, vs control over 21 days, p<0.01",better cardiac function than the control group
same,Fractional shortening (FS) / cardiac function,"[2]; 0.2 mg/kg/day, vs control, p<0.01",better function compared with the control group
same,systolic dilation between Day 6 and Day 21,[2]; 0.64 mg/kg/day,reversal in systolic dilation
same,Ejection fraction (EF),[2]; [5],improved EF
same,Fractional shortening (FS) / cardiac function,[2]; [5],improved cardiac function
same,diastolic dilation between Day 6 and 21,[2]; 2 mg/kg/day,no diastolic dilation
same,difference of cardiac function (EF) Days 27 vs 6 post infarction,[2]; 2 mg/kg/day,"improvement in cardiac function compared with Day 6, which was significantly illustrated"
same,efficacy compared with HBI-3802,[2]; 2 mg/kg/day,greater efficacy compared with HBI-3802
same,systolic dilation between Day 6 and Day 21,[2]; 2 mg/kg/day,reversal in systolic dilation
same,Ejection fraction (EF) after treatment,"[2]; 2 mg/kg/day gastric gavage 14 days from day 6 post MI, vs 0.64 and 0.2 mg/kg HBI-3808 and control",increased significantly
same,cardiac function (conclusion),[2]; 2 mg/kg/day oral,improved both diastolic and systolic function
same,cardiac function (EF) compared with 2 mg/kg HBI-3802 group,[2]; [6],improvement in cardiac function
same,cardiac function (FS) compared with 2 mg/kg HBI-3802 group,[2]; [6],improvement in cardiac function
same,Left ventricular end systolic dimension (LVESD),"[2]; 2 mg/kg/day, vs 2 mg/kg HBI-3802, 0.64 and 0.2 mg/kg HBI-3808 and control, p<0.01",smaller
same,Left ventricular end diastolic dimension (LVEDD),"[2]; 2 mg/kg/day, vs 0.64, 0.2 mg/kg and control groups, p<0.01",smaller
same,Fractional shortening (FS),"[2]; 2 mg/kg/day, vs 0.64 and 0.2 mg/kg HBI-3808 and control",increased FS significantly
same,improvement of cardiac function (conclusion),[2]; 0.64 or 0.2 mg/kg/day,lower-magnitude improvement of cardiac function
same,dose response of cardiac function restoration,"[2]; 2, 0.64, 0.2 mg/kg/day",had a dose response
"CC1CCC2(C(=O)[O-])CCC3(C)C(=CCC4C5(C)CC(O)C(O)C(C)(CO)C5CCC43C)C2C1(C)O.[Na+] (stereo not drawn) [HBI-3808 sodium salt of Pattern 5, sodium salt of 23-hydroxytormentic acid]",temperature range in which diffractograms consistent with the input salt were observed,[3],25-115 °C
same,solubility in water versus temperature,[4],inverse solubility in water

# — patent US20250326785A1, “SODIUM SALT AND ETHANOLAMINE SALT OF 23-HYDROXYTORMENTIC ACID” (HUYABIO International, LLC, priority 2024, published 2025)
